Measured values from patent US11524968B2, “Heterocyclic compound as a protein kinase inhibitor” (HK inno.N Corporation, priority 2017, dated 2022).

These molecules were tested against JAK1 (Homo sapiens (Human), UniProt P23458) (assay: Analysis of JAK1 activity inhibition ability (ADP-Glo Kinase Assay)). Settings: JAK1 enzyme, ADP-Glo luminescence, ATP 250 uM, IRS-itide substrate, 30° C. 40 minutes; read-out: IC50.
Sequence of JAK1 (P23458 whole entry): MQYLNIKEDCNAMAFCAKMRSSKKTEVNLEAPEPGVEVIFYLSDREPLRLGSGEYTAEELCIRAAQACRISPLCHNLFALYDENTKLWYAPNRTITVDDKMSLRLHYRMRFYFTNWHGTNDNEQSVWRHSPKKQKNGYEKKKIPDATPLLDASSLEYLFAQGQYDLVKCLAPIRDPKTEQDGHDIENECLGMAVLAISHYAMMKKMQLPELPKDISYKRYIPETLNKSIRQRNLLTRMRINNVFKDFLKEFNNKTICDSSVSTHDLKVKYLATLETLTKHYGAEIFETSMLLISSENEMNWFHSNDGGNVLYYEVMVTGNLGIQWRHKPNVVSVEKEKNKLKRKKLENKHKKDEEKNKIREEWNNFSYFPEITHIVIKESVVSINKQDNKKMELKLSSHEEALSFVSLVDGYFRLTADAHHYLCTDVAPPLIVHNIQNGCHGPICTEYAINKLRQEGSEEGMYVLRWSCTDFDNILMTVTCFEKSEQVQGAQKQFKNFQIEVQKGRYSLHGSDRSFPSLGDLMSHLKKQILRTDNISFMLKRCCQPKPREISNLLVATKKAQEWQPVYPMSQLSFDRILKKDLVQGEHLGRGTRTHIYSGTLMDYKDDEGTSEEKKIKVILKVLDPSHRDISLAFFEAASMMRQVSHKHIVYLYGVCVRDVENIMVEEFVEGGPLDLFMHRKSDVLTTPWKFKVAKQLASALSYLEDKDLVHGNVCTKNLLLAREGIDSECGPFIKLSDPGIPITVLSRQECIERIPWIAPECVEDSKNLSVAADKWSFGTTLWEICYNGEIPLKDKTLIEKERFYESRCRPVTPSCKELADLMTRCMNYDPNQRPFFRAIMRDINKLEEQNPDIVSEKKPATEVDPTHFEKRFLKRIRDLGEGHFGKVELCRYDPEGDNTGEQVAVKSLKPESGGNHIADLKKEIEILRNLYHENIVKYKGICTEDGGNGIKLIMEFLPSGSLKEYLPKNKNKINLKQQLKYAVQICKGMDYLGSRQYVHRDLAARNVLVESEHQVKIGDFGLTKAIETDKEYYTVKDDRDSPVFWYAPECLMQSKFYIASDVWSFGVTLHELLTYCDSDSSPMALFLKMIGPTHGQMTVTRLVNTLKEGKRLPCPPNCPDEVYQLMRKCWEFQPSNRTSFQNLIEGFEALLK
Type: biochemical
How it was run: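 ADP-Glo luminescence read-out of ADP production, with IC50 taken as the concentration halving JAK1 activity relative to control. Enzyme was incubated 40 min at 30 °C with compound, IRS-itide (40 ng/mL) and ATP (250 uM), concentrations as prepared in pH 7.5 Tris-HCl/MgCl2/BSA/DTT buffer.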
In the case of N#CCC(=O)N1C[C@@H]2C[C@H]1CN2c1cc(NC(=O)C2CC2)nc2[nH]ccc12 [Example 679, N-(4-((1S,4S)-5-(2-cyanoacetyl)-2,5-diazabicyclo[2.2.1]heptan-2-yl)-1H-pyrrolo[2,3-b]pyridin-6-yl)cyclopropanecarboxamide], the IC50 is reported as greater than 200 nM.
Cn1cc(S(=O)(=O)Nc2ccc(-c3nc(NC(=O)C4CC4)nc4[nH]ccc34)cc2)cn1 [Example 199, N-(4-(4-((1-methyl-1H-pyrazole)-4-sulfonamido)phenyl)-7H-pyrrolo[2,3-d]pyrimidin-2-yl)cyclopropanecarboxamide] showed an IC50 greater than 200 nM.
N#CCC(=O)N1C[C@H]2C[C@@H]1CN2c1cc(NC(=O)C2CC2)nc2[nH]ccc12 [Example 681, N-(4-((1R,4R)-5-(2-cyanoacetyl)-2,5-diazabicyclo[2.2.1]heptan-2-yl)-1H-pyrrolo[2,3-b]pyridin-6-yl)cyclopropanecarboxamide] showed an IC50 greater than 200 nM.
CC1CN(C(=O)c2ccc(F)cc2Cl)CC=C1c1cc(NC(=O)C2CC2)nc2[nH]ccc12 (centres unmarked) [Example 355, N-(4-(1-(2-chloro-4-fluorobenzoyl)-3-methyl-1,2,3,6-tetrahydropyridin-4-yl)-1H-pyrrolo[2,3-b]pyridin-6-yl)cyclopropanecarboxamide] was tested, and the IC50 was 20 to 200 nM.
CC1CN(C(=O)c2ccc(O)cc2)CC=C1c1cc(NC(=O)C2CC2)nc2[nH]ccc12 (centres unmarked) [Example 350, N-(4-(1-(4-hydroxybenzoyl)-3-methyl-1,2,3,6-tetrahydropyridin-4-yl)-1H-pyrrolo[2,3-b]pyridin-6-yl)cyclopropanecarboxamide] showed an IC50 of 20 to 200 nM.
For O=C(Nc1cc(C2=CCC(NC3CCN(C(=O)C4CCCCC4)CC3)CC2)c2cc[nH]c2n1)C1CC1 (centres unmarked) [Example 492, N-(4-(4-((1-(cyclohexanecarbonyl)piperidin-4-yl)amino)cyclohex-1-en-1-yl)-1H-pyrrolo[2,3-b]pyridin-6-yl)cyclopropanecarboxamide], the IC50 was greater than 200 nM.
In the case of CC1CN(C(=O)c2ccc(Cl)cc2)CC=C1c1cc(NC(=O)C2CC2)nc2[nH]ccc12 (centres unmarked) [Example 333, N-(4-(1-(4-chlorobenzoyl)-3-methyl-1,2,3,6-tetrahydropyridin-4-yl)-1H-pyrrolo[2,3-b]pyridin-6-yl)cyclopropanecarboxamide], the IC50 is reported as 20 to 200 nM.
CCCS(=O)(=O)Nc1ccc(-c2cc(NC(=O)C3CC3)nc3[nH]ccc23)c(C#N)c1 [Example 145, N-(4-(2-cyano-4-(propylsulfonamido)phenyl)-1H-pyrrolo[2,3-b]pyridin-6-yl)cyclopropanecarboxamide] showed an IC50 of 20 to 200 nM.
With O=C(Nc1cc(-c2cnn(C3CN(S(=O)(=O)c4ccccc4)C3)c2)c2cc[nH]c2n1)C1CC1 [Example 604, N-(4-(1-(1-(phenylsulfonyl)azetidin-3-yl)-1H-pyrazol-4-yl)-1H-pyrrolo[2,3-b]pyridin-6-yl)cyclopropanecarboxamide] the IC50 was 20 to 200 nM.
In the case of O=C(Nc1cc(C2=CCC(NC3CCN(C(=O)c4cc(F)cc(F)c4)CC3)CC2)c2cc[nH]c2n1)C1CC1 (centres unmarked) [Example 491, N-(4-(4-((1-(3,5-difluorobenzoyl)piperidin-4-yl)amino)cyclohex-1-en-1-yl)-1H-pyrrolo[2,3-b]pyridin-6-yl)cyclopropanecarboxamide], the IC50 is reported as greater than 200 nM.
Molecule O=C(Nc1cc(-c2ccc(NS(=O)(=O)c3ccc(F)cc3)cc2)c2cc[nH]c2n1)C1CC1 [Example 13, N-(4-(4-((4-fluorophenyl)sulfonamido)phenyl)-1H-pyrrolo[2,3-b]pyridin-6-yl)cyclopropanecarboxamide] has an IC50 of less than 20 nM.
N#CCC(=O)N1CC=C(c2nc(NC(=O)C3CC3)nc3[nH]ccc23)CC1 [Example 425, N-(4-(1-(2-cyanoacetyl)-1,2,3,6-tetrahydropyridin-4-yl)-7H-pyrrolo[2,3-d]pyrimidin-2-yl)cyclopropanecarboxamide] showed an IC50 of 20 to 200 nM.
CCCCS(=O)(=O)Nc1ccc(-c2cc(NC(=O)C3CC3)nc3[nH]ccc23)cc1F [Example 67, N-(4-(4-(butylsulfonamido)-3-fluorophenyl)-1H-pyrrolo[2,3-b]pyridin-6-yl)cyclopropanecarboxamide] gave an IC50 of less than 20 nM.
O=C(Nc1cc(C2=CCN(C(=O)C3CCS(=O)(=O)CC3)CC2)c2cc[nH]c2n1)C1CC1 [Example 249, N-(4-(1-(1,1-dioxidotetrahydro-2H-thiopyran-4-carbonyl)-1,2,3,6-tetrahydropyridin-4-yl)-1H-pyrrolo[2,3-b]pyridin-6-yl)cyclopropanecarboxamide] was tested, and the IC50 was 20 to 200 nM.
In the case of CC1CN(C(=O)CC(=O)N2CCOCC2)CC=C1c1cc(NC(=O)C2CC2)nc2[nH]ccc12 (centres unmarked) [Example 362, N-(4-(3-methyl-1-(3-morpholino-3-oxopropanoyl)-1,2,3,6-tetrahydropyridin-4-yl)-1H-pyrrolo[2,3-b]pyridin-6-yl)cyclopropanecarboxamide], the IC50 is reported as 20 to 200 nM.
With CCc1cc(NS(=O)(=O)CCCC#N)ccc1-c1cc(NC(=O)C2CC2)nc2[nH]ccc12 [Example 111, N-(4-(4-((3-cyanopropyl)sulfonamido)-2-ethylphenyl)-1H-pyrrolo[2,3-b]pyridin-6-yl)cyclopropanecarboxamide] the IC50 was less than 20 nM.
For O=C(NCc1ccc(-c2cc(NC(=O)C3CC3)nc3[nH]ccc23)cc1)NCC(F)(F)F [Example 581, N-(4-(4-((3-(2,2,2-trifluoroethyl)ureido)methyl)phenyl)-1H-pyrrolo[2,3-b]pyridin-6-yl)cyclopropanecarboxamide], the IC50 was 20 to 200 nM.
Molecule N#CC1CN(S(=O)(=O)Nc2ccc(-c3cc(NC(=O)C4CC4)nc4[nH]ccc34)cc2)C1 [Example 221, N-(4-(4-((3-cyanoazetidine)-1-sulfonamido)phenyl)-1H-pyrrolo[2,3-b]pyridin-6-yl)cyclopropanecarboxamide] has an IC50 of 20 to 200 nM.
For CCNC(=S)N1C2C=C(c3cc(NC(=O)C4CC4)nc4[nH]ccc34)CC1CC2 (centres unmarked) [Example 469, N-(4-(8-(ethylcarbamothioyl)-8-azabicyclo[3.2.1]oct-2-en-3-yl)-1H-pyrrolo[2,3-b]pyridin-6-yl)cyclopropanecarboxamide], the IC50 was less than 20 nM.
For O=C(Nc1cc(C2=CC3CCC(C2)N3C(=O)CCC(F)(F)F)c2cc[nH]c2n1)C1CC1 (centres unmarked) [Example 258, N-(4-(8-(4,4,4-trifluorobutanoyl)-8-azabicyclo[3.2.1]oct-2-en-3-yl)-1H-pyrrolo[2,3-b]pyridin-6-yl)cyclopropanecarboxamide], the IC50 was less than 20 nM.
CC1CC1C(=O)N1CC=C(c2cc(NC(=O)C3CC3)nc3[nH]ccc23)CC1 (centres unmarked) [Example 273, N-(4-(1-(2-methylcyclopropane-1-carbonyl)-1,2,3,6-tetrahydropyridin-4-yl)-1H-pyrrolo[2,3-b]pyridin-6-yl)cyclopropanecarboxamide] showed an IC50 of 20 to 200 nM.
CS(=O)(=O)N1CC(n2cc(-c3cc(NC(=O)C4CC4)nc4[nH]ccc34)cn2)C1 [Example 603, N-(4-(1-(1-(methylsulfonyl)azetidin-3-yl)-1H-pyrazol-4-yl)-1H-pyrrolo[2,3-b]pyridin-6-yl)cyclopropanecarboxamide] gave an IC50 of 20 to 200 nM.
NC(=O)c1ccc(S(=O)(=O)Nc2ccc(-c3cc(NC(=O)C4CC4)nc4[nH]ccc34)cc2)cc1 [Example 17, 4-(N-(4-(6-(cyclopropanecarboxamido)-1H-pyrrolo[2,3-b]pyridin-4-yl)phenyl)sulfamoyl)benzamide] showed an IC50 of 20 to 200 nM.
Work on N#CCCCS(=O)(=O)Nc1cc(F)c(-c2cc(NC(=O)C3CC3)nc3[nH]ccc23)cc1F [Example 104, N-(4-(4-((3-cyanopropyl)sulfonamido)-2,5-difluorophenyl)-1H-pyrrolo[2,3-b]pyridin-6-yl)cyclopropanecarboxamide] yielded an IC50 of 20 to 200 nM.
O=C(Nc1nc(-c2ccc(NS(=O)(=O)N3CCOCC3)cc2)c2cc[nH]c2n1)C1CC1 [Example 235, N-(4-(4-(morpholine-4-sulfonamido)phenyl)-7H-pyrrolo[2,3-d]pyrimidin-2-yl)cyclopropanecarboxamide] was tested, and the IC50 was 20 to 200 nM.
CCS(=O)(=O)N1C2CCC1CC(c1cc(NC(=O)C3CC3)nc3[nH]ccc13)C2 (centres unmarked) [Example 646, N-(4-(8-(ethylsulfonyl)-8-azabicyclo[3.2.1]octan-3-yl)-1H-pyrrolo[2,3-b]pyridin-6-yl)cyclopropanecarboxamide] was tested, and the IC50 was greater than 200 nM.
C[C@@H]1CN(C(=O)CC#N)CC=C1c1cc(NC(=O)C2CC2)nc2[nH]ccc12 [Example 304, (S)—N-(4-(1-(2-cyanoacetyl)-3-methyl-1,2,3,6-tetrahydropyridin-4-yl)-1H-pyrrolo[2,3-b]pyridin-6-yl)cyclopropanecarboxamide] was tested, and the IC50 was less than 20 nM.
Molecule O=C(Nc1nc(-c2ccc(NCc3ccc(F)cc3)cc2)c2cc[nH]c2n1)C1CC1 [Example 473, N-(4-(4-((4-fluorobenzyl)amino)phenyl)-7H-pyrrolo[2,3-d]pyrimidin-2-yl)cyclopropanecarboxamide] has an IC50 of less than 20 nM.
CC(C)CS(=O)(=O)Nc1ccc(-c2cc(NC(=O)C3CC3)nc3[nH]ccc23)cc1F [Example 75, N-(4-(3-fluoro-4-((2-methylpropyl)sulfonamido)phenyl)-1H-pyrrolo[2,3-b]pyridin-6-yl)cyclopropanecarboxamide] showed an IC50 of less than 20 nM.
For CCCS(=O)(=O)Nc1ccc(-c2cc(NC(=O)C3CC3)nc3[nH]ccc23)c(C(=O)OC)c1 [Example 141, methyl 2-(6-(cyclopropanecarboxamido)-1H-pyrrolo[2,3-b]pyridin-4-yl)-5-(propylsulfonamido)benzoate], the IC50 was greater than 200 nM.
For Cn1cncc1S(=O)(=O)Nc1ccc(-c2nc(NC(=O)C3CC3)nc3[nH]ccc23)cc1 [Example 198, N-(4-(4-((1-methyl-1H-imidazole)-5-sulfonamido)phenyl)-7H-pyrrolo[2,3-d]pyrimidin-2-yl)cyclopropanecarboxamide], the IC50 was greater than 200 nM.
O=C(Nc1cc(-c2cnn(C3CCN(S(=O)(=O)C(F)(F)F)CC3)c2)c2cc[nH]c2n1)C1CC1 [Example 609, N-(4-(1-(1-((trifluoromethyl)sulfonyl)piperidin-4-yl)-1H-pyrazol-4-yl)-1H-pyrrolo[2,3-b]pyridin-6-yl)cyclopropanecarboxamide] showed an IC50 of 20 to 200 nM.
